In ChEMBL document CHEMBL4308854, “Novel indole-thiazolidinone conjugates: Design, synthesis and whole-cell phenotypic evaluation as a novel class of antimicrobial agents” (Eur J Med Chem, 2018):
In brackets after ≈: the same amount, converted by molar mass. Activity calls are given as the source filed them. The calls are words filed in the database; no cut-off is given here.

How the values were obtained:
Type in all cases: functional
Staphylococcus aureus [1] = assay: Antibacterial activity against Staphylococcus aureus RCMB 010028 after 24 hrs by serial dilution method; details: RCMB 010028, 24 h
Candida albicans [2] = assay: Antifungal activity against Candida albicans RCMB 05036 assessed as diameter of zone inhibition after 48 hrs by agar well diffusion assay
Pseudomonas aeruginosa [3] = assay: Antibacterial activity against Pseudomonas aeruginosa RCMB 010043 after 24 hrs by serial dilution method; details: RCMB 010043, 24 h
Staphylococcus aureus [4] = assay: Antibacterial activity against Staphylococcus aureus RCMB 010028 assessed as diameter of zone inhibition after 24 hrs by agar well diffusion assay
Aspergillus fumigatus [5] = assay: Antifungal activity against Aspergillus fumigatus RCMB 02568 after 24 hrs by serial dilution method; details: RCMB 02568, 24 h
Candida albicans [6] = assay: Antifungal activity against Candida albicans RCMB 05036 after 24 hrs by serial dilution method; details: RCMB 05036, 24 h
Escherichia coli [7] = assay: Potency index, ratio of ciprofloxacin MIC to compound MIC for Escherichia coli RCMB 010052
Aspergillus fumigatus [8] = assay: Antifungal activity against Aspergillus fumigatus RCMB 02568 assessed as diameter of zone inhibition after 48 hrs by agar well diffusion assay
Escherichia coli [9] = assay: Antibacterial activity against Escherichia coli RCMB 010052 assessed as diameter of zone inhibition after 24 hrs by agar well diffusion assay
Pseudomonas aeruginosa [10] = assay: Antibacterial activity against Pseudomonas aeruginosa RCMB 010043 assessed as diameter of zone inhibition after 24 hrs by agar well diffusion assay
Escherichia coli [11] = assay: Antibacterial activity against Escherichia coli RCMB 010052 after 24 hrs by serial dilution method; details: RCMB 010052, 24 h
[12] = test system: Mycobacterium tuberculosis; assay: Antitubercular activity against Mycobacterium tuberculosis RCMB 010126 clinical isolate after 4 days by microplate alamar blue assay; details: for MIC: Mycobacterium tuberculosis, RCMB 010126, 96 h
Pseudomonas aeruginosa [13] = assay: Potency index, ratio of ciprofloxacin MIC to compound MIC for Pseudomonas aeruginosa RCMB 010043

SMILES	MIC (Staphylococcus aureus [1]) [µg/mL]	diameter of the inhibition zone (DIZ) (Candida albicans [2])	MIC (Pseudomonas aeruginosa [3]) [µg/mL]	diameter of the inhibition zone (DIZ) (Staphylococcus aureus [4])	MIC (Aspergillus fumigatus [5]) [µg/mL]	MIC (Candida albicans [6]) [µg/mL]	Ratio (Escherichia coli [7])	diameter of the inhibition zone (DIZ) (Aspergillus fumigatus [8])	diameter of the inhibition zone (DIZ) (Escherichia coli [9])	diameter of the inhibition zone (DIZ) (Pseudomonas aeruginosa [10])	MIC (Escherichia coli [11]) [µg/mL]	inhibition (INH) [12] [%]	MIC [12] [µg/mL]	inhibition [12]	Ratio (Pseudomonas aeruginosa [13])
CC(=O)c1sc(/N=C2\NC(=O)/C(=C3/C(=O)Nc4ccccc43)S2)nc1C	3.9 (≈ 10.1 µM)	22.7 mm	3.9 (≈ 10.1 µM)	20.3 mm	1.95 (≈ 5.07 µM)	0.98 (≈ 2.55 µM)	2	21.5 mm	22.8 mm	19.9 mm	0.98 (≈ 2.55 µM)	63.24	1.56 (≈ 4.06 µM)	–	–
CC(=O)c1sc(/N=C2\NC(=O)/C(=C3/C(=O)Nc4ccc(Br)cc43)S2)nc1C	–	18.8 mm	–	18.5 mm	–	–	–	17.6 mm	20.4 mm	18.6 mm	–	43.21	12.5 (≈ 26.9 µM)	–	–
CCOC(=O)c1sc(/N=C2\NC(=O)/C(=C3/C(=O)Nc4ccc(Br)cc43)S2)nc1C	3.9 (≈ 7.9 µM)	21.3 mm	3.9 (≈ 7.9 µM)	20.1 mm	3.9 (≈ 7.9 µM)	1.95 (≈ 3.95 µM)	–	20.6 mm	21.1 mm	19.4 mm	1.95 (≈ 3.95 µM)	86.31	1.56 (≈ 3.16 µM)	–	–
CC(=O)c1sc(/N=C2\NC(=O)/C(=C3/C(=O)Nc4ccc(OC(F)(F)F)cc43)S2)nc1C	–	16.2 mm	–	14.3 mm	–	–	–	15.6 mm	14.2 mm	13.9 mm	–	41.58	12.5 (≈ 26.6 µM)	–	–
C[C@@H]1[C@H](O)[C@@H](C)/C=C/C=C/C=C/C=C/C=C/C=C/C=C/[C@H](O[C@@H]2O[C@H](C)[C@@H](O)[C@H](N)[C@@H]2O)C[C@@H]2O[C@](O)(C[C@@H](O)C[C@@H](O)[C@H](O)CC[C@@H](O)C[C@@H](O)CC(=O)O[C@H]1C)C[C@H](O)[C@H]2C(=O)O [AMPHOTERICIN B]	–	25.4 mm	–	–	1.95 (≈ 2.11 µM)	0.98 (≈ 1.06 µM)	–	23.7 mm	–	–	–	–	–	–	–
CCOC(=O)c1sc(/N=C2\NC(=O)/C(=C/c3cn(C)c4ccccc34)S2)nc1C	–	inactive	–	inactive	–	–	–	inactive	inactive	inactive	–	–	–	inactive	–
CC(=O)c1sc(/N=C2\NC(=O)/C(=C/c3c[nH]c4ccccc34)S2)nc1C	7.81 (≈ 20.4 µM)	20.9 mm	7.81 (≈ 20.4 µM)	18.9 mm	3.9 (≈ 10.2 µM)	1.95 (≈ 5.1 µM)	–	20.3 mm	21.3 mm	18.5 mm	1.95 (≈ 5.1 µM)	52.41	3.12 (≈ 8.16 µM)	–	–
CC(=O)c1sc(/N=C2\NC(=O)/C(=C/c3cn(C)c4ccccc34)S2)nc1C	–	16.9 mm	–	15.3 mm	–	–	–	16.2 mm	15.9 mm	14.2 mm	–	34.32	–	–	–
NNC(=O)c1ccncc1 [ISONIAZID]	–	–	–	–	–	–	–	–	–	–	–	–	0.78 (≈ 5.69 µM)	–	–
CCOC(=O)c1sc(/N=C2\NC(=O)/C(=C3/C(=O)N(C)c4ccc(Cl)cc43)S2)nc1C	1.95 (≈ 4.21 µM)	21.3 mm	1.95 (≈ 4.21 µM)	21.4 mm	3.9 (≈ 8.42 µM)	1.95 (≈ 4.21 µM)	2	20.8 mm	22.3 mm	21.5 mm	0.98 (≈ 2.12 µM)	68.31	0.78 (≈ 1.68 µM)	–	2
CCOC(=O)c1sc(/N=C2\NC(=O)/C(=C3/C(=O)Nc4ccc(F)cc43)S2)nc1C	3.9 (≈ 9.02 µM)	22.1 mm	3.9 (≈ 9.02 µM)	20.5 mm	1.95 (≈ 4.51 µM)	1.95 (≈ 4.51 µM)	–	21.3 mm	21.5 mm	20.2 mm	1.95 (≈ 4.51 µM)	62.15	1.56 (≈ 3.61 µM)	–	–
CCOC(=O)c1sc(/N=C2\NC(=O)/C(=C/c3c[nH]c4ccccc34)S2)nc1C	3.9 (≈ 9.45 µM)	20.9 mm	7.81 (≈ 18.9 µM)	18.9 mm	3.9 (≈ 9.45 µM)	1.95 (≈ 4.73 µM)	–	20.3 mm	21.3 mm	18.5 mm	1.95 (≈ 4.73 µM)	46.35	6.24 (≈ 15.1 µM)	–	–
COc1ccc2c(c1)/C(=C1/S/C(=N/c3nc(C)c(C(C)=O)s3)NC1=O)C(=O)N2	1.95 (≈ 4.7 µM)	21.3 mm	1.95 (≈ 4.7 µM)	21.7 mm	1.95 (≈ 4.7 µM)	1.95 (≈ 4.7 µM)	–	20.8 mm	22.4 mm	21.4 mm	1.95 (≈ 4.7 µM)	64.35	1.56 (≈ 3.76 µM)	–	2
CC(=O)c1sc(/N=C2\NC(=O)/C(=C/c3cn(Cc4ccccc4)c4ccccc34)S2)nc1C	1.95 (≈ 4.13 µM)	16.2 mm	15.6 (≈ 33.1 µM)	20.6 mm	3.9 (≈ 8.25 µM)	31.2 (≈ 66.1 µM)	–	20.3 mm	20.3 mm	17.3 mm	3.9 (≈ 8.25 µM)	56.35	1.56 (≈ 3.3 µM)	–	–
CCOC(=O)c1sc(/N=C2\NC(=O)/C(=C/c3cn(Cc4ccccc4)c4ccccc34)S2)nc1C	–	inactive	–	inactive	–	–	–	inactive	inactive	inactive	–	–	–	inactive	–
CC(=O)c1sc(/N=C2\NC(=O)/C(=C3/C(=O)N(Cc4ccccc4)c4ccccc43)S2)nc1C	1.95 (≈ 4.11 µM)	22.5 mm	3.9 (≈ 8.22 µM)	21.2 mm	1.95 (≈ 4.11 µM)	0.98 (≈ 2.07 µM)	2	21.7 mm	23.4 mm	20.3 mm	0.98 (≈ 2.07 µM)	58.34	1.56 (≈ 3.29 µM)	–	–
CC(=O)c1sc(/N=C2\NC(=O)/C(=C3/C(=O)Nc4ccc(F)cc43)S2)nc1C	–	19.1 mm	–	18.6 mm	–	–	–	18.1 mm	20.6 mm	19.1 mm	–	43.26	12.5 (≈ 31 µM)	–	–
